Results taken from PubChem BioAssay AID1259407 (Chemical Carcinogenesis Research Information System (CCRIS), 2018).
Calls of active or inactive are those of the source. How the calls were made is not given here.

Tested on: CCRIS mutagenicity, Ames/micronucleus/aberration tests
Test: CCRIS mutagenicity studies
[1] = Test System: AMES SALMONELLA TYPHIMURIUM, Strain/Indicator: TA98, Metabolic Activation: NONE, Method: STANDARD PLATE
[2] = Test System: AMES SALMONELLA TYPHIMURIUM, Strain/Indicator: TA100, Metabolic Activation: NONE, Method: STANDARD PLATE

Question: What does the source list for `Cc1nc(N)cc2[nH]c3ccccc3c12`?
Answer: mutagenic call (Test System: AMES SALMONELLA TYPHIMURIUM, Strain/Indicator: TA98, Metabolic Activation: HUMAN, BLOOD, CYTOSOL, Method: PREINCUBATION): active; positive; mutagenic call (Test System: AMES SALMONELLA TYPHIMURIUM, Strain/Indicator: TA98, Metabolic Activation: MOUSE, LIVER, HEPATOCYTES): active; positive; mutagenic call (Test System: AMES SALMONELLA TYPHIMURIUM, Strain/Indicator: TA98, Metabolic Activation: MOUSE, LIVER, HEPATOCYTES, 2,3,7,8-TETRACHLORODIBENZO-P-DIOXIN): active; positive; mutagenic call (Test System: AMES SALMONELLA TYPHIMURIUM, Strain/Indicator: TA98, Metabolic Activation: MOUSE, LIVER, MICROSOMES): active; positive; mutagenic call (Test System: AMES SALMONELLA TYPHIMURIUM, Strain/Indicator: TA98, Metabolic Activation: MOUSE, LIVER, MICROSOMES, 2,3,7,8-TETRACHLORODIBENZO-P-DIOXIN): active; positive; mutagenic call (Test System: AMES SALMONELLA TYPHIMURIUM, Strain/Indicator: TA98, Metabolic Activation: MOUSE, LIVER, MICROSOMES, TCDD, Method: STANDARD PLATE): active; positive; mutagenic call (Test System: AMES SALMONELLA TYPHIMURIUM, Strain/Indicator: TA98, Metabolic Activation: MOUSE, LIVER, MICROSOMES, Method: STANDARD PLATE): active; positive; mutagenic call (Test System: AMES SALMONELLA TYPHIMURIUM, Strain/Indicator: TA98, Metabolic Activation: RAT, BLADDER, S-9, PCB, Method: FLUCTUATION TEST): active; positive; mutagenic call (Test System: AMES SALMONELLA TYPHIMURIUM, Strain/Indicator: TA98, Metabolic Activation: RAT, HEPATOCYTES, AROCLOR 1254, Method: PREINCUBATION): active; positive; mutagenic call (Test System: AMES SALMONELLA TYPHIMURIUM, Strain/Indicator: TA98, Metabolic Activation: RAT, LIVER, S-9, AROCLOR 1254, Method: PREINCUBATION): active; positive; mutagenic call (Test System: AMES SALMONELLA TYPHIMURIUM, Strain/Indicator: TA100, Metabolic Activation: RAT, BLADDER, S-9, PCB, Method: FLUCTUATION TEST): active; positive; mutagenic call (Test System: AMES SALMONELLA TYPHIMURIUM, Strain/Indicator: TA100, Metabolic Activation: RAT, LIVER, S-9, AROCLOR 1254, Method: PREINCUBATION): inactive; negative; mutagenic call (Test System: AMES SALMONELLA TYPHIMURIUM, Strain/Indicator: YG1019, Metabolic Activation: RAT LIVER S-9, AROCLOR, Method: PREINCUBATION): active; positive; mutagenic call (Test System: UDS HAMSTER HEPATOCYTES, Strain/Indicator: THY INCORP, Metabolic Activation: NONE, Method: LIQUID SCINTILLATION COUNTING): inactive; negative; mutagenic call (Test System: UDS RAT HEPATOCYTES, Strain/Indicator: THY INCORP, Metabolic Activation: NONE, Method: LIQUID SCINTILLATION COUNTING): inactive; negative

Question: Which mutagenic call (Test System: AMES SALMONELLA TYPHIMURIUM, Strain/Indicator: TA1535, Metabolic Activation: NONE, Method: STANDARD PLATE) does the source give for `N=NCO` here?
Answer: active; positive

Question: And the mutagenic call (Test System: E. COLI, Strain/Indicator: WP2, Metabolic Activation: NONE, Method: STANDARD PLATE)?
Answer: active; positive

Question: What about the mutagenic call (Test System: E. COLI, Strain/Indicator: WP2 UVRA, Metabolic Activation: NONE, Method: STANDARD PLATE) of the same compound?
Answer: active; positive

Question: For `O=[N+]([O-])c1ccc2c(c1)NCC2`, which mutagenic call [1] is on record?
Answer: active; positive

Question: `CCCCCCC[N+](=O)[O-]` was tested. Which mutagenic call (Test System: UDS RAT HEPATOCYTES, Strain/Indicator: THY INCORP, Metabolic Activation: NONE) did it give?
Answer: inactive; negative

Question: Which mutagenic call (End Point: In vitro chromosome aberrations, Test System: Human peripheral blood lymphocytes, Metabolic Activation: None) does the source give for `NCP(=O)(O)O` here?
Answer: active; positive (structural changes)

Question: What about the mutagenic call (End Point: In vivo micronucleus, Test System: Bone marrow erythrocytes, Species: Mouse, Strain/Sex: BALB/Male and female, Route: Intraperitoneal) of the same compound?
Answer: active; positive

Question: `Cc1ccc(CN2C3c4ccccc4-c4ccccc4C32)cc1` (stereo unspecified) was tested. Which mutagenic call [2] did it give?
Answer: active; positive

Question: What does the source list for `C(=N\NC1=NCCN1)/c1c2ccccc2c(/C=N/NC2=NCCN2)c2ccccc12`?
Answer: mutagenic call (Test System: AMES SALMONELLA TYPHIMURIUM, Strain/Indicator: TA97A, Metabolic Activation: NONE, Method: STANDARD PLATE): active; positive; mutagenic call [1]: active; positive; mutagenic call (Test System: AMES SALMONELLA TYPHIMURIUM, Strain/Indicator: TA1538, Metabolic Activation: NONE, Method: STANDARD PLATE): active; positive

Question: For `ClC1(Cl)[C@H](c2ccccc2)[C@@H]1c1ccccc1`, which mutagenic call (Test System: CHINESE HAMSTER V-79, Strain/Indicator: V-79 (HPRT)/6-THIOGUANINE, Metabolic Activation: NONE) is on record?
Answer: inactive; negative

Question: With `C[C@]12CC[C@@H]3c4cc(O)c(O)cc4CC[C@H]3[C@@H]1CCC2=O` as the compound, how does the mutagenic call (Test System: Ames Salmonella typhimurium, Strain/Indicator: TA98, Metabolic Activation: None, Method: Standard plate) read?
Answer: inactive; negative

Question: What about the mutagenic call (Test System: Ames Salmonella typhimurium, Strain/Indicator: TA98, Metabolic Activation: Rat, liver, S-9, Method: Standard plate) of the same compound?
Answer: inactive; negative

Question: What about the mutagenic call (Test System: Ames Salmonella typhimurium, Strain/Indicator: TA100, Metabolic Activation: None, Method: Standard plate) of the same compound?
Answer: inactive; negative

Question: What about the mutagenic call (Test System: Ames Salmonella typhimurium, Strain/Indicator: TA100, Metabolic Activation: Rat, liver, S-9, Method: Standard plate) of the same compound?
Answer: inactive; negative

Question: With `Cn1c([N+](=O)[O-])cnc1C1NC(CO)(CO)CO1` (stereo unspecified) as the compound, how does the mutagenic call (Test System: AMES SALMONELLA TYPHIMURIUM, Strain/Indicator: TA97, Metabolic Activation: NONE, Method: STANDARD PLATE) read?
Answer: active; positive

Question: And the mutagenic call (Test System: AMES SALMONELLA TYPHIMURIUM, Strain/Indicator: TA97, Metabolic Activation: RAT, LIVER, S-9, AROCLOR 1254, Method: STANDARD PLATE)?
Answer: active; positive

Question: What about the mutagenic call [1] of the same compound?
Answer: active; positive

Question: And the mutagenic call (Test System: AMES SALMONELLA TYPHIMURIUM, Strain/Indicator: TA98, Metabolic Activation: RAT, LIVER, S-9, AROCLOR 1254, Method: STANDARD PLATE)?
Answer: active; positive

Question: And the mutagenic call [2]?
Answer: active; positive

Question: What about the mutagenic call (Test System: AMES SALMONELLA TYPHIMURIUM, Strain/Indicator: TA100, Metabolic Activation: RAT, LIVER, S-9, AROCLOR 1254, Method: STANDARD PLATE) of the same compound?
Answer: active; positive

Question: What about the mutagenic call (Test System: AMES SALMONELLA TYPHIMURIUM, Strain/Indicator: TA102, Metabolic Activation: NONE, Method: STANDARD PLATE) of the same compound?
Answer: active; positive

Question: What about the mutagenic call (Test System: AMES SALMONELLA TYPHIMURIUM, Strain/Indicator: TA102, Metabolic Activation: RAT, LIVER, S-9, AROCLOR 1254, Method: STANDARD PLATE) of the same compound?
Answer: active; positive

Question: For `Brc1ccc2c(c1)[C@H]1O[C@H]1[C@H]1CCCC[C@H]21`, which mutagenic call [1] is on record?
Answer: inactive; negative

Question: What about the mutagenic call [2] of the same compound?
Answer: inactive; negative

Question: How did the mutagenic call (Test System: AMES SALMONELLA TYPHIMURIUM, Strain/Indicator: TA100, Metabolic Activation: NONE, Method: PREINCUBATION) turn out when `CC\C=C/C=C\C=C/C=C\C=C/C=C\OCC(O)CO` (stereo unspecified) was run?
Answer: active; positive

Question: Which mutagenic call [1] does the source give for `C[C@]12O[C@H]1[C@H]1CCCC[C@@H]1c1ccccc12` here?
Answer: inactive; negative

Question: And the mutagenic call [2]?
Answer: inactive; negative

Question: Which results are given for `C[n+]1c2ccccc2cc2ccccc21`?
Answer: mutagenic call (Test System: AMES SALMONELLA TYPHIMURIUM, Strain/Indicator: TA1535, Metabolic Activation: NONE, Method: PREINCUBATION): inactive; negative; mutagenic call (Test System: AMES SALMONELLA TYPHIMURIUM, Strain/Indicator: TA1535, Metabolic Activation: RAT, LIVER, S-9, TETRACHLOROBIPHENYL, Method: PREINCUBATION): inactive; negative; mutagenic call (Test System: AMES SALMONELLA TYPHIMURIUM, Strain/Indicator: TA1537, Metabolic Activation: NONE, Method: PREINCUBATION): inactive; negative; mutagenic call (Test System: AMES SALMONELLA TYPHIMURIUM, Strain/Indicator: TA1537, Metabolic Activation: RAT, LIVER, S-9, TETRACHLOROBIPHENYL, Method: PREINCUBATION): active; positive; mutagenic call (Test System: AMES SALMONELLA TYPHIMURIUM, Strain/Indicator: TA1538, Metabolic Activation: NONE, Method: PREINCUBATION): inactive; negative; mutagenic call (Test System: AMES SALMONELLA TYPHIMURIUM, Strain/Indicator: TA1538, Metabolic Activation: RAT, LIVER, S-9, TETRACHLOROBIPHENYL, Method: PREINCUBATION): active; positive; mutagenic call (Test System: AMES SALMONELLA TYPHIMURIUM, Strain/Indicator: TA1978, Metabolic Activation: RAT, LIVER, S-9, TETRACHLOROBIPHENYL, Method: PREINCUBATION): inactive; negative
